Laboratory results: US20140005177A1, “PYRIDINYL- AND PYRAZINYL-METHYLOXY-ARYL DERIVATIVES USEFUL AS INHIBITORS OF SPLEEN TYROSINE KINASE (SYK)” (GLAXO GROUP LIMITED, priority 2011, published 2014)
Counter-ions that a name gives are not always drawn. Like-named read-outs stand apart in the source and are kept apart here.

Tested on: Ramos B cells
Assay: Ramos pErk assay (anti-IgM stimulated B cells, pErk MSD)
Assay type: cell-based
Conditions: Homo sapiens, anti-IgM 5 μg/ml, pErk readout, read-out: average pIC50 (converted)
Experimental: Ramos B cells (human B cells of Burkitt's Lymphoma) are stimulated using anti-IgM. […] The subsequent autophosphorylation of Syk leads to initiation of a signalling cascade resulting in B cell activation via the Erk MAP Kinase pathway. As a result Erk is phosphorylated and following cell lysis is detected by an immune capture assay.
Cells were plated at a density of 2.5×10^5/well in a volume of 25 μl assay medium (RPMI containing 10% heat inactivated foetal calf serum, 1% L-glutamine) in 96 v-well polypropylene plates. 25 μl appropriately diluted compound solution was added and the plate incubated for 30 min at 37° C. with 5% CO2. Cells were stimulated with 5 μl Fab′2 fragments of goat anti-human IgM (5 μg/ml final) for 7 min at 37° C. Cells are lysed by the addition of 55 μL 2×RIPA lysis buffer for 2 h at 4° C. Lysate may be frozen at this point at −80° C.
50 μl cell lysate was transferred to a 96 well MSD plate coated with anti-pErk1/2 (Thr/Tyr: 202/204; 185/187) capture antibody and incubated for 16 hours at 4° C. or 3 hours at room temperature. The plate was washed and an anti-pErk detection antibody added (25 μl/well) for 1 hour at room temperature. This was removed, 150 μL MSD read buffer added and the resultant electrochemiluminescence signal measured.
Compound was prepared as a 10 mM stock in DMSO and a dilution series prepared in DMSO using 9 successive 5-fold dilutions. This dilution series was diluted a further 1:100 with assay medium to give the final concentration range to be tested of 5×10^−5 to 2.56×10^−11M. Compound dilutions were prepared using the Biomek 2000 and Biomek Nx automated robotic pipetting systems.

IC50 (Ramos)	SMILES	IC50
158 to 6310 nM	COc1cccc(OCc2cc(C)ccn2)c1-c1ccc2c(c1)CNCC2 [Example 11, 7-(2-(methyloxy)-6-{[(4-methyl-2-pyridinyl)methyl]oxy}phenyl)-1,2,3,4-tetrahydroisoquinoline]	
158 to 6310 nM	CCOc1ccc(OCc2cc(C)ccn2)c(-c2ccc3c(c2)CNCC3)c1 [Example 12, 7-(5-(ethyloxy)-2-{[(4-methyl-2-pyridinyl)methyl]oxy}phenyl)-1,2,3,4-tetrahydroisoquinoline]	
158 to 6310 nM	Cc1ccnc(COc2ccc(C(F)(F)F)cc2-c2ccc3c(c2)CNCC3)c1 [Example 15, 7-[2-{[(4-methyl-2-pyridinyl)methyl]oxy}-5-(trifluoromethyl)phenyl]-1,2,3,4-tetrahydroisoquinoline]	
158 to 6310 nM	COc1ccc(OCc2cc(C)ccn2)c(-c2ccc3c(c2)CNCC3)c1 [Example 16, 7-(5-(methyloxy)-2-{[(4-methyl-2-pyridinyl)methyl]oxy}phenyl)-1,2,3,4-tetrahydroisoquinoline]	
158 to 6310 nM	Cc1ccnc(COc2ccc(C(C)(C)C)cc2-c2ccc3c(c2)CNCC3)c1 [Example 17, 7-(5-(1,1-dimethylethyl)-2-{[(4-methyl-2-pyridinyl)methyl]oxy}phenyl)-1,2,3,4-tetrahydroisoquinoline]	
158 to 6310 nM	Cc1ccnc(COc2ccc(C)nc2-c2ccc3c(c2)CCNCC3)c1 [Example 19, 7-(6-methyl-3-{[(4-methyl-2-pyridinyl)methyl]oxy}-2-pyridinyl)-2,3,4,5-tetrahydro-1H-3-benzazepine, trifluoroacetate]	
158 to 6310 nM	COc1ccc(OCc2cnccn2)c(-c2ccc3c(c2)CCNCC3)c1 [Example 20, 7-{5-(methyloxy)-2-[(2-pyrazinylmethyl)oxy]phenyl}-2,3,4,5-tetrahydro-1H-3-benzazepine, trifluoroacetate]	
158 to 6310 nM	COc1ccc(OCc2cc(C)ccn2)c(-c2ccc3c(c2)CCNCC3)c1 [Example 22, 7-(5-(methyloxy)-2-{[(4-methyl-2-pyridinyl)methyl]oxy}phenyl)-2,3,4,5-tetrahydro-1H-3-benzazepine, trifluoroacetate]	

The next lines start with the compound.

SMILES	IC50 (Ramos)	IC50
COc1cccc(OCc2cc(C)ccn2)c1-c1ccc2c(c1)CCNCC2 [Example 2, 7-(2-(methyloxy)-6-{[(4-methyl-2-pyridinyl)methyl]oxy}phenyl)-2,3,4,5-tetrahydro-1H-3-benzazepine]	158 to 6310 nM	≤ 1000 nM
COc1ccc(-c2ccc3c(c2)CCNCC3)c(OCc2cc(C)ccn2)c1 [Example 3, 7-(4-(methyloxy)-2-{[(4-methyl-2-pyridinyl)methyl]oxy}phenyl)-2,3,4,5-tetrahydro-1H-3-benzazepine]	158 to 6310 nM	≤ 1000 nM
CC(=O)c1ccc(OCc2cc(C)ccn2)c(-c2ccc3c(c2)CCNCC3)c1 [Example 4, 1-[4-{[(4-methyl-2-pyridinyl)methyl]oxy}-3-(2,3,4,5-tetrahydro-1H-3-benzazepin-7-yl)phenyl]ethanone]		≤ 1000 nM
Cc1ccnc(COc2ccc(F)cc2-c2ccc3c(c2)CNCC3)c1 [Example 6, 7-(5-fluoro-2-{[(4-methyl-2-pyridinyl)methyl]oxy}phenyl)-1,2,3,4-tetrahydroisoquinoline]	158 to 6310 nM	
COc1ccnc(COc2ccccc2-c2ccc3c(c2)CCNCC3)c1 [Example 7, 7-[2-({[4-(methyloxy)-2-pyridinyl]methyl}oxy)phenyl]-2,3,4,5-tetrahydro-1H-3-benzazepine]	158 to 6310 nM	
Cc1ccnc(COc2ccc(C)cc2-c2ccc3c(c2)CNCC3)c1 [Example 10, 7-(5-methyl-2-{[(4-methyl-2-pyridinyl)methyl]oxy}phenyl)-1,2,3,4-tetrahydroisoquinoline]	158 to 6310 nM	
CC(=O)c1ccc(OCc2cc(C)ccn2)c(-c2ccc3c(c2)CCNCC3)c1 [Example 24, 1-[4-{[(4-methyl-2-pyridinyl)methyl]oxy}-3-(2,3,4,5-tetrahydro-1H-3-benzazepin-7-yl)phenyl]ethanone, trifluoroacetate]	158 to 6310 nM	
